Key:
seeds of SL101 = test: Sensitivity to low temperatures during germination on paper, pretreatment in GA3 solution; assay type: in vivo, Brassica oleracea
Protocol: (§1) Two replicates of 50 seeds per treatment were incubated at 5° C. or 10° C. in the light as described before for a germination test on paper. Incubation was in water or in a 1 mM solution of GA3. After 10 days seeds that had germinated were removed. The boxes with the remaining non-germinated seeds were then placed at 20° C. in the light. After a further 5 days the number of germinated seeds was counted. As a comparison seeds of both A12 and SL101 were germinated at 20° C. in the light without a pretreatment. Germination percentage of these seeds was counted after 10 days.

seeds of A12 = test: as above; assay type: in vivo, Brassica oleracea; details: pretreatment 10 d 10 C. in the light in 1 mM GA3, then non-germinated seeds 5 days at 20° C. in the light
Protocol: as §1

Measured: Percentage of germination of seeds

C=C1C[C@]23C[C@@]1(O)CC[C@H]2[C@@]12C=C[C@H](O)[C@@](C)(C(=O)O1)[C@H]2[C@@H]3C(=O)O [GA3]
100%: seeds of SL101; pretreatment 10 d 5 C. in the light in 1 mM GA3, then non-germinated seeds 5 days at 20° C. in the light | seeds of SL101; pretreatment 10 d 10 C. in the light in 1 mM GA3, then non-germinated seeds 5 days at 20° C. in the light | seeds of A12

Source: patent publication US11479784B2, “Modulation of seed vigor” (Syngenta Participations AG, priority 2012, dated 2022)
